In general, melting point refers to the temperature of the solid-liquid transition.

These results are taken from a melting point compilation (Tetko et al.; mined from patent text by program, amines drawn as free bases though some values may be those of a salt).

SMILES strings stand for the structures.

In turn, `CC/C(=N\OC(F)F)c1ccc(Cl)c2nc3n(c12)CCCN3c1c(C)nc(OC)nc1C` registered a melting point of 199 to 200 °C.

Turning to `O=C1CN2CCC1CC2`, the melting point was found to be 58 °C.

`COCC1CN(c2ccc(C3CCC(OC)CC3)cc2)C(=O)O1` (centres undefined) returned a melting point of 82 to 83 °C.

Take `Cc1cc(C)c2ccc(N3C(=O)c4nccnc4C3=O)nc2n1`: the melting point amounted to 250 °C.

`CCOC1(OCC)CCC2(CC1)c1cc(O)c(O)cc1CC(C(=O)O)N2C(=O)OCc1ccccc1` (centres undefined): the melting point was 132 to 133 °C.

In turn, `CCC12CCC3C4CCC(=O)C=C4C(C)CC3C1CCC2O` (centres undefined) registered a melting point of 127 to 130 °C.

The compound `COc1ccc2[nH]c(=O)c3cccn3c2n1` displayed a melting point of 250 °C.

Compound `Cc1ccc(C(=O)O)c(Nc2ccc3[nH]ncc3c2)n1` came in with a melting point of 252 to 254 °C.

For the compound `CC(OC1CCCCO1)C(O)(Cn1cncn1)c1ccc(F)cc1F` (centres undefined), the melting point lay in the range of 93 to 95 °C.

`CCOC(=O)C1=C(N)N=C(N)C(C)(C(=O)OCC)C1c1cccc([N+](=O)[O-])c1` (centres undefined) showed a melting point of 142 °C.

In turn, `CCn1cc(N(C)S(=O)(=O)c2cccs2)c2[nH]c(C3=NCCS3)cc21` displayed a melting point of 163 °C.

Turning to `COc1cc(Cc2cnc(CCCOc3cccc(CN4CCCCC4)c3)[nH]c2=O)ccn1`, the melting point lay in the range of 93 to 94 °C.

In the case of `O=C(CS(=O)Cc1ccc(Cl)c(Cl)c1)NO` (centres undefined), the melting point fell in the range of 191 to 192 °C.

For the compound `CC(=NO)c1ccnc(C)c1`, the melting point was in the range of 151 to 152 °C.

In turn, `O=C(c1ccc(OC(F)F)c2oc3ccccc3c12)[NH+]([O-])c1ccncc1` (centres undefined) returned a melting point of 244 °C.

Compound `COc1cc(OC)nc(NC(=O)NS(=O)(=O)c2ccccc2S(N)(=O)=O)n1` returned a melting point of 192 to 193 °C.

Regarding `CC(CN1CCC(C#N)C1)NC(=O)c1c[nH]c2ncc(-c3nn(C)c4cc(Cl)ccc34)nc12` (centres undefined), the melting point lay in the range of 206 to 209 °C.

The compound `CC(=O)c1ccc(Oc2ccc(I)cc2)cc1` came in with a melting point of 99 to 101 °C.

With `O=[N+]([O-])c1c(Cl)cccc1-c1nc2ccccc2[nH]1`, the melting point is > 260 °C.

In the case of `CCOC(=O)C(O)=Cc1nccc(OCc2ccccc2)n1`, the melting point lay in the range of 124 to 126 °C.

As for `CC(COc1ccccc1C(=O)C(=O)c1ccccc1OCC(C)CN(C)C)CN(C)C` (centres undefined), the melting point lay in the range of 69 to 70 °C.

For the compound `Cc1c(Cc2ccc(C(C)C)cc2)c2c(c(C)c1NC(=O)CC(C)(C)C)CC(C)(CO)O2` (centres undefined), the melting point is 186 to 187 °C.

As for `NCCCN1CCOC(c2ccccc2)(c2ccccc2)CC1`, the melting point was in the range of 68 to 70 °C.

Compound `O=C1OCC2Cc3cccc(F)c3OC12` (centres undefined) came in with a melting point of 75.5 to 77.5 °C.

As for `O=[N+]([O-])c1cccnc1NCc1ccc(F)cc1`, the melting point was determined as 76 °C.

For `C1=Cc2cccnc2N(C2CC2)c2ncccc21`, the melting point was in the range of 184 to 185 °C.

`O=C(O)c1c(Cl)ccc(S(=O)(=O)N2CCCCC2)c1Cl`: the melting point was 142 to 145 °C.

In turn, `COC(=O)C(OC)c1ccc2oc(-c3ccc(Cl)cc3)nc2c1` (centres undefined) came in with a melting point of 100 to 105 °C.

Regarding `CSc1ccc2c(=O)c(SC)cn(C)c2c1`, the melting point was in the range of 154 to 155 °C.

Compound `Cn1c(=O)c(NC(=O)Nc2ccc(F)cc2F)c(-c2ccccc2Cl)c2cccnc21` displayed a melting point of 225 to 226 °C.

On to `O=c1c2cc(F)c(N3CCCC3)nc2n(-c2ccccc2F)c(=O)n1OCc1ccccc1`, for which the melting point is 221 to 222 °C.

`Cc1csc(C(O)(c2nc(C)cs2)C(F)(F)F)n1` displayed a melting point of 140 to 142 °C.

In turn, `COc1ccc(-c2cc3cc(Br)ccc3o2)cc1` yielded a melting point of 189 °C.

In turn, `CN1CC(=O)Nc2ccccc21` showed a melting point of 132 °C.

As for `CC(C)(C)OC(=O)N1CC2C(CCC3(C)C(C(=O)O)CCC23)C2(C)CCC(=O)C=C12` (centres undefined), the melting point lay within 215 to 216 °C.

For the compound `CCC(CC)Nc1cc(C)nc2c1nc(C)n2-c1c(C)cc(C)cc1C`, the melting point is 101 to 103 °C.

The compound `Cc1c(Nc2c(C#N)cnc3scc(C)c23)ccc2[nH]ccc12` had a melting point of 261 °C.

With `CC(=O)Oc1ccc(-c2cnc(N(S(C)(=O)=O)S(C)(=O)=O)c(Cc3ccccc3)n2)cc1`, the melting point fell in the range of 166 to 167 °C.

Turning to `C=C(C)C(OC(=O)Nc1cc(OC(=O)Oc2cc(NC(=O)OC(C(=C)C)C(=O)OC)c(F)cc2Cl)c(Cl)cc1F)C(=O)OC` (centres undefined), the melting point fell in the range of 72 to 74 °C.

The compound `COC(=O)C1CCC2C3CCC4CC(O)CCC4(C)C3C(NC(=O)OCC(Cl)(Cl)Cl)CC12C` (centres undefined) yielded a melting point of 140 to 143 °C.

Consider `CON1CCC2(CC1)NC(=O)C(c1c(C)cc(C)cc1C)=C2OCc1ccccc1`, for which the melting point was 184 to 186 °C.

In the case of `CC(C)CC(NC(=O)C(Cc1c[nH]cn1)NC(=O)C(CC(=O)NCCc1ccccc1)Cc1cccc2ccccc12)C(O)CNCc1ccccc1` (mixture of isomers), the melting point fell in the range of 108 to 113 °C.

`COc1ccc(-c2cc3c(Nc4cccc(Cl)c4)ncnc3[nH]2)cc1` came in with a melting point of 294 to 295 °C.

`CC(C)(Oc1c(Br)cc(-c2c3ccccc3c(Br)c3sc4ccccc4c23)cc1Br)C(=O)O` yielded a melting point of 197 to 199 °C.

On to `CCCCCCCCCCCCNC(=O)CC(Br)C(=O)O` (centres undefined), for which the melting point fell in the range of 62 to 70 °C.

The compound `CN(C(=S)Oc1ccc(Cl)c(C(C)(C)C)c1)c1ccccc1` showed a melting point of 65 to 67 °C.

Take `CC(C)(CO)NC(=O)c1ccccc1`: the melting point lay within 80 to 82 °C.

`O=Cc1ccc(CCc2ccc(C=O)cc2)cc1` returned a melting point of 121 to 122 °C.

Compound `COc1cc(C=NNC(=O)c2ccc(O)c(N)c2)cc(OC)c1OCc1ccc(C(C)C)cc1` yielded a melting point of 174 to 175 °C.

As for `OC[C@H](O)[C@@H](O)[C@H](O)[C@H](O)C=NN(Cc1ccccc1)c1ccccc1`, the melting point lay in the range of 124 to 128 °C.

For `CN(CC1=NC(=S)N=N1)C(COCc1cc(C(F)(F)F)cc(C(F)(F)F)c1)C(c1ccccc1)c1ccccc1` (centres undefined), the melting point was 192 to 194 °C.

Compound `CCOC(C)=NS(=O)(=O)c1nc(-c2ccccc2)ns1` returned a melting point of 120 to 122 °C.

In turn, `OCc1ccc(C=Cc2csc3ccccc23)s1` had a melting point of 68 to 70 °C.

For the compound `Cc1cc(COC2CCCO2)nc(N)n1` (centres undefined), the melting point was in the range of 109 to 110 °C.

Compound `CC(C)(C#N)OC(=O)Nc1ccc(-c2ncn(-c3ccc(OC(F)(F)F)cc3)n2)cc1` had a melting point of 172 to 175 °C.

Turning to `CC1C(c2ccccc2)OC(C)(C)N1C(=O)C(Cl)Cl` (centres undefined), the melting point came to 126 °C.

`CCOC(=O)CCNC(=O)CCNC(=O)c1csc(NC(=N)N)n1` showed a melting point of 154 to 157 °C.

As to `COc1ccc(C[C@@H](COC(C)=O)NC(=O)c2ccnc(-n3nc(-c4cccnc4)c4ccccc4c3=O)c2)cc1OC`, the melting point is 85 to 87 °C.

Turning to `CCOC(=O)c1cccc(C(=O)O)c1`, the melting point lay in the range of 131 to 132 °C.

For `CCCNC(=O)c1ccc(C)c(-c2nc(N(C)CCCN(C)C)nc3c2ccc(=O)n3-c2c(F)cccc2F)c1`, the melting point fell in the range of 104 to 109 °C.

The compound `N#Cc1ccc(N2C(=O)N(CCF)C3(CCOCC3)C2=O)cc1C(F)(F)F` yielded a melting point of 192 to 193 °C.

Turning to `COc1ccc(CSc2nnc(-c3ccnc(NC(=O)CCc4ccccc4)c3)o2)cc1C(F)(F)F`, the melting point lay in the range of 180 to 181 °C.

Consider `CN(C)CCOc1ccc2[nH]c(C(=O)N3CC(CCl)c4c3cc(OCc3ccccc3)c3ncccc43)cc2c1` (centres undefined), for which the melting point lay in the range of 176 to 179 °C.

In turn, `CC(NC(=O)C(F)(F)F)C(=O)O` (centres undefined) had a melting point of 68 °C.

Consider `CC(C)CNc1nc(-c2ccccc2)c(Cl)n2c(Br)cnc12`, for which the melting point came to 138 °C.

With `C[Si](C)(C)c1cccc2cc(C(=O)Nc3ccc(N4CC(O)C4)nc3)n(Cc3cccc(F)c3)c12`, the melting point is 215 to 217 °C.

For the compound `CC(C)OC(=O)c1cc(O)cc2cc(-c3ccc(O)cc3)oc12`, the melting point is > 250 °C.

`CCCC(C(=O)NC)n1cc(C)c(-c2ccccc2)n1` (centres undefined) returned a melting point of 84 to 86 °C.

`Cc1oc(=O)oc1COC(=O)c1oc2cccc(O)c2c1C` came in with a melting point of 168 to 170 °C.

Compound `O=C(O)CCCNC(=O)c1ccc(NC(=O)c2ccccc2O)cc1` displayed a melting point of 211 to 213 °C.

In turn, `CC(=O)c1ccc(S(=O)(=O)NCCO)cc1` gave a melting point of 119 to 121 °C.

Compound `CC(C(=O)O)c1ccc2c(c1)C(=O)Cc1cc(F)ccc1S2` (centres undefined) had a melting point of 213 to 214 °C.

As to `CCOC(=O)c1ccc(NCC(C)Oc2cccc3ccccc23)cc1` (centres undefined), the melting point fell in the range of 110 to 112 °C.

The compound `COC(=O)c1c(N)c2c(c(N)c1C#N)C(=O)c1ccccc1C2=O` came in with a melting point of 215 to 218 °C.

`CCCc1nc(C(O)CCC)c(C(N)=O)n1Cc1ccc(-c2ccccc2C(=O)O)cc1` (centres undefined) registered a melting point of 118 to 121 °C.

Turning to `CCCOc1ccccc1-c1nc2cc([N+](=O)[O-])ccc2c(=O)[nH]1`, the melting point is 138 °C.

For the compound `COc1cc2c(cc1Cl)CC(C)=NN=C2c1ccc(N)cc1`, the melting point lay within 198 to 200 °C.

Turning to `COC(=O)Cc1ccc(OCc2ccc3ccccc3n2)c(Br)c1`, the melting point amounted to 90 °C.

In turn, `CCNC(=O)NC(N)=O` registered a melting point of 158 to 160 °C.

As for `COc1ccc(C(=O)O)cc1OC1CCSC1` (centres undefined), the melting point was 177 to 179 °C.

Regarding `CC(C)(SC(=S)c1ccccc1)c1ccc(Cl)cc1`, the melting point was in the range of 77 to 78 °C.

As for `CC(=O)CNC(=O)Nc1cc(-c2c(-c3ccc(F)c(C)c3)nc3cccnn23)ccn1`, the melting point was 208 to 209 °C.

For the compound `COc1ccccc1N1CCN(CCc2c(C)c3ccc(OC)c(OC)c3oc2=O)CC1`, the melting point is 146 to 148 °C.

Consider `CC(=S)NC[C@H]1CN(c2ccc(N3CCN(C)C3=O)c(F)c2)C(=O)O1`, for which the melting point worked out at 168 °C.

`COc1ccc(S(=O)(=O)Nc2cccnc2Nc2ccc(OC(=O)c3ccccc3)cc2)cc1`: the melting point fell in the range of 208 to 210 °C.

Regarding `CC(C)OC(=O)C=Cc1cc(N)ccc1Cl`, the melting point was 98 to 100 °C.

On to `Cn1ncnc1COc1nn2c(-c3ccccc3F)nncc2c1-c1ccco1`, for which the melting point was 188 to 190 °C.

`Cc1ccccc1CC1(CO)CCN(C(=O)OC(C)(C)C)CC1`: the melting point lay in the range of 104 to 106 °C.

`CC(O)c1ccc(N)c(S(N)(=O)=O)c1` (centres undefined) gave a melting point of 160 to 162 °C.
